Several values for one entry are separate records, joined by “and”; a condition that tells them apart may be missing. Equal values may be shown once. Toxic doses and inconclusive results are not listed. No stated cut-off is given here; in the data, active means T/C of 150% or more; inactive means T/C below 125%.
System: L1210 leukemia ip in BDF1 mice, survival T/C
Test: NCI In Vivo Anticancer Drug Screen. Data for tumor model L1210 Leukemia (intraperitoneal) in B6D2F1 (BDF1) mice
Settings: endpoint: mean survival time, higher = longer survival
How it was run: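 Ratio derived from survival: compound-dosed mice over vehicle-dosed mice, all bearing a transplantable tumor.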

[1] = dose: 100.0 mg/kg/injection, schedule: Q04DX003 (ip), vehicle: gum acacia
[2] = dose: 200.0 mg/kg/injection, schedule: Q04DX003 (ip), vehicle: gum acacia
[3] = dose: 400.0 mg/kg/injection, schedule: Q04DX003 (ip), vehicle: gum acacia
[4] = dose: 50.0 mg/kg/injection, schedule: Q04DX003 (ip), vehicle: saline with Tween-80
[5] = dose: 100.0 mg/kg/injection, schedule: Q01DX009 (ip), vehicle: saline with Tween-80
[6] = dose: 200.0 mg/kg/injection, schedule: Q01DX009 (ip), vehicle: saline with Tween-80
[7] = dose: 100.0 mg/kg/injection, schedule: Q01DX009 (ip), vehicle: saline
[8] = dose: 100.0 mg/kg/injection, schedule: Q04DX003 (ip), vehicle: saline
[9] = dose: 200.0 mg/kg/injection, schedule: Q01DX009 (ip), vehicle: saline
[10] = dose: 200.0 mg/kg/injection, schedule: Q04DX003 (ip), vehicle: saline
[11] = dose: 400.0 mg/kg/injection, schedule: Q01DX009 (ip), vehicle: saline
[12] = dose: 400.0 mg/kg/injection, schedule: Q04DX003 (ip), vehicle: saline
[13] = dose: 400.0 mg/kg/injection, schedule: Q01DX009 (ip), vehicle: saline with Tween-80
[14] = dose: 100.0 mg/kg/injection, schedule: Q01DX001 (ip), vehicle: carboxymethylcellulose (CMC)
[15] = dose: 100.0 mg/kg/injection, schedule: Q01DX009 (ip), vehicle: Klucel (hydroxypropylcellulose) (HPC)
[16] = dose: 200.0 mg/kg/injection, schedule: Q01DX009 (ip), vehicle: Klucel (hydroxypropylcellulose) (HPC)
[17] = dose: 400.0 mg/kg/injection, schedule: Q01DX009 (ip), vehicle: Klucel (hydroxypropylcellulose) (HPC)
[18] = dose: 100.0 mg/kg/injection, schedule: Q01DX001 (ip), vehicle: saline
[19] = dose: 200.0 mg/kg/injection, schedule: Q01DX001 (ip), vehicle: saline
[20] = dose: 100.0 mg/kg/injection, schedule: Q04DX003 (ip), vehicle: Klucel (hydroxypropylcellulose) (HPC)
[21] = dose: 200.0 mg/kg/injection, schedule: Q04DX003 (ip), vehicle: Klucel (hydroxypropylcellulose) (HPC)
[22] = dose: 400.0 mg/kg/injection, schedule: Q04DX003 (ip), vehicle: Klucel (hydroxypropylcellulose) (HPC)

Measured: T/C

CCOC(=O)c1cnc(=O)[nH]c1Nc1ccccc1Br
inactive: [1] 95 % of control | [2] 90 % of control | [3] 95 % of control

CCCCCCCCCCCCCCOc1ccc(S(=O)(=O)/N=C(\N)NC(N)=NCCCCCCCCCC)cc1
inactive: dose: 100.0 mg/kg/injection, schedule: Q04DX002 (ip), vehicle: Klucel (hydroxypropylcellulose) (HPC) 89 % of control | dose: 200.0 mg/kg/injection, schedule: Q04DX002 (ip), vehicle: Klucel (hydroxypropylcellulose) (HPC) 101 % of control | dose: 400.0 mg/kg/injection, schedule: Q04DX002 (ip), vehicle: Klucel (hydroxypropylcellulose) (HPC) 89 % of control

Cc1c2ccncc2c(C)c2c1[nH]c1ccc(Cl)cc12
inactive: dose: 37.5 mg/kg/injection, schedule: Q01DX001 (oral), vehicle: saline with Tween-80 102 % of control | dose: 50.0 mg/kg/injection, schedule: Q01DX009 (ip), vehicle: saline with Tween-80 96 % of control | [4] 104 % of control | dose: 75.0 mg/kg/injection, schedule: Q01DX001 (oral), vehicle: saline with Tween-80 103 % of control | [5] 94 % of control | dose: 100.0 mg/kg/injection, schedule: Q04DX003 (ip), vehicle: saline with Tween-80 98 % of control | dose: 150.0 mg/kg/injection, schedule: Q01DX001 (oral), vehicle: saline with Tween-80 97 % of control | dose: 200.0 mg/kg/injection, schedule: Q01DX001 (oral), vehicle: saline with Tween-80 108 % of control | [6] 92 % of control | dose: 200.0 mg/kg/injection, schedule: Q04DX003 (ip), vehicle: saline with Tween-80 90 % of control | dose: 400.0 mg/kg/injection, schedule: Q01DX001 (oral), vehicle: saline with Tween-80 107 % of control | dose: 800.0 mg/kg/injection, schedule: Q01DX001 (oral), vehicle: saline with Tween-80 113 % of control

Cc1cc(C)cc(N=Cc2ccccc2)c1
inactive: dose: 50.0 mg/kg/injection, schedule: Q01DX001 (ip), vehicle: saline with Tween-80 98 % of control | dose: 100.0 mg/kg/injection, schedule: Q01DX001 (ip), vehicle: saline with Tween-80 98 % of control | dose: 200.0 mg/kg/injection, schedule: Q01DX001 (ip), vehicle: saline with Tween-80 95 % of control

C=CCC(CC)(C(=O)OCC)C(=O)OCC
inactive: [7] 107 % of control | [8] 102 % of control | [9] 98 % of control | [10] 113 % of control | [11] 95 % of control | [12] 96 % of control

Cc1ccc(NC(=O)NC(C)C)c(C)c1
inactive: dose: 12.5 mg/kg/injection, schedule: Q04DX003 (ip), vehicle: saline with Tween-80 96 % of control | dose: 25.0 mg/kg/injection, schedule: Q04DX003 (ip), vehicle: saline with Tween-80 98 % of control | [4] 104 % of control | dose: 400.0 mg/kg/injection, schedule: Q04DX003 (ip), vehicle: saline with Tween-80 90 % of control

Cc1ncc(CO)c(C2NOCc3c(Cl)cc4c(c32)OCO4)c1O (stereo not drawn)
inactive: [5] 90 % of control | [6] 95 % of control | [13] 94 % of control

Oc1[nH]c(=S)sc1C1=c2ccccc2=NCC1
inactive: dose: 44.4 mg/kg/injection, schedule: Q01DX001 (ip), vehicle: carboxymethylcellulose (CMC) 93 % of control and 94 % of control | dose: 66.7 mg/kg/injection, schedule: Q01DX001 (ip), vehicle: carboxymethylcellulose (CMC) 96 % of control and 106 % of control | [14] 98 % of control and 107 % of control | dose: 150.0 mg/kg/injection, schedule: Q01DX001 (ip), vehicle: carboxymethylcellulose (CMC) 98 % of control and 100 % of control

COc1ccc(Cl)cc1NC(=O)c1cccc(Cl)c1
inactive: [15] 110 % of control | [16] 110 % of control | [17] 104 % of control

Cc1ccc(C)c([N+](=O)[O-])c1C(=O)O
inactive: [14] 104 % of control | dose: 200.0 mg/kg/injection, schedule: Q01DX001 (ip), vehicle: carboxymethylcellulose (CMC) 96 % of control | dose: 400.0 mg/kg/injection, schedule: Q01DX001 (ip), vehicle: carboxymethylcellulose (CMC) 109 % of control

COC1OC(COC(c2ccccc2)(c2ccccc2)c2ccccc2)C2OC12 (stereo not drawn)
inactive: [18] 94 % of control | [19] 103 % of control | dose: 400.0 mg/kg/injection, schedule: Q01DX001 (ip), vehicle: saline 97 % of control

CCn1c[n+](-c2ccccc2)cn1
inactive: [18] 106 % of control

CCOC(=O)c1c[nH]c2ccc(OC)cc2c1=O
inactive: [7] 96 % of control | [8] 98 % of control | [9] 98 % of control | [10] 102 % of control | [11] 96 % of control | [12] 100 % of control

CN(C)CCN(C)N=Nc1c(-c2cccs2)n[nH]c1C(F)(F)F
inactive: dose: 75.0 mg/kg/injection, schedule: Q01DX001 (ip), vehicle: other 94 % of control | dose: 150.0 mg/kg/injection, schedule: Q01DX001 (ip), vehicle: other 98 % of control | dose: 300.0 mg/kg/injection, schedule: Q01DX001 (ip), vehicle: other 93 % of control

Cc1cccc(C2NC(=S)N3C(c4cccc(C)c4)NC(=S)N23)c1 (stereo not drawn)
inactive: dose: 100.0 mg/kg/injection, schedule: Q01DX009 (ip), vehicle: gum acacia 100 % of control | [1] 88 % of control | dose: 200.0 mg/kg/injection, schedule: Q01DX009 (ip), vehicle: gum acacia 100 % of control | [2] 88 % of control | dose: 400.0 mg/kg/injection, schedule: Q01DX009 (ip), vehicle: gum acacia 91 % of control | [3] 87 % of control

CCSc1ncc(C(N)=O)c(N)n1
inactive: [20] 97 % of control | [21] 100 % of control | [22] 92 % of control

CC[CH2][Sn]([CH2]CC)([CH2]CC)[O]C(=O)CN1CCC[CH]([Hg][c]2cccnc2)C1 (stereo not drawn)
inactive: dose: 50.0 mg/kg/injection, schedule: Q01DX001 (ip), vehicle: saline 98 % of control | [18] 109 % of control | [19] 104 % of control

ClC(c1ccccc1)c1ccc(Br)cc1 (stereo not drawn)
inactive: [20] 108 % of control | [21] 101 % of control | [22] 90 % of control

CC1(C(Cl)Cl)C=CC(=O)C=C1
inactive: [15] 90 % of control | dose: 100.0 mg/kg/injection, schedule: Q04DX003 (ip), vehicle: other 103 % of control | [16] 87 % of control | dose: 200.0 mg/kg/injection, schedule: Q04DX003 (ip), vehicle: other 111 % of control | [17] 106 % of control | dose: 400.0 mg/kg/injection, schedule: Q04DX003 (ip), vehicle: other 95 % of control

CCOC(=O)NC(=S)NN
inactive: [7] 105 % of control | [9] 110 % of control

CCC(=O)Nc1cccc2ccccc12
inactive: dose: 12.5 mg/kg/injection, schedule: Q01DX009 (ip), vehicle: Klucel (hydroxypropylcellulose) (HPC) 104 % of control | dose: 25.0 mg/kg/injection, schedule: Q01DX009 (ip), vehicle: Klucel (hydroxypropylcellulose) (HPC) 112 % of control | dose: 50.0 mg/kg/injection, schedule: Q01DX009 (ip), vehicle: Klucel (hydroxypropylcellulose) (HPC) 101 % of control and 89 % of control | [20] 95 % of control | [21] 106 % of control

O=C1C2CC=CCC2C(=O)C2CC=CCC12 (stereo not drawn)
inactive: [5] 99 % of control | [6] 93 % of control | [13] 90 % of control

— PubChem BioAssay AID248 (DTP/NCI, 2004)
